Test results: the Kinase Knowledgebase extract (Sharma et al. 2016)

Legend:
[1] = target: PIK3CA (human) (UniProt P42336); experiment: Assessment of PIK3CA Kinase Activity in NZOV9 Cells
[2] = target: PIK3CA (human) (UniProt P42336); experiment: Assessment of PIK3CA Kinase Activity in NZB5 Cells

Sequence of PIK3CA (human) (P42336 whole entry, looked up): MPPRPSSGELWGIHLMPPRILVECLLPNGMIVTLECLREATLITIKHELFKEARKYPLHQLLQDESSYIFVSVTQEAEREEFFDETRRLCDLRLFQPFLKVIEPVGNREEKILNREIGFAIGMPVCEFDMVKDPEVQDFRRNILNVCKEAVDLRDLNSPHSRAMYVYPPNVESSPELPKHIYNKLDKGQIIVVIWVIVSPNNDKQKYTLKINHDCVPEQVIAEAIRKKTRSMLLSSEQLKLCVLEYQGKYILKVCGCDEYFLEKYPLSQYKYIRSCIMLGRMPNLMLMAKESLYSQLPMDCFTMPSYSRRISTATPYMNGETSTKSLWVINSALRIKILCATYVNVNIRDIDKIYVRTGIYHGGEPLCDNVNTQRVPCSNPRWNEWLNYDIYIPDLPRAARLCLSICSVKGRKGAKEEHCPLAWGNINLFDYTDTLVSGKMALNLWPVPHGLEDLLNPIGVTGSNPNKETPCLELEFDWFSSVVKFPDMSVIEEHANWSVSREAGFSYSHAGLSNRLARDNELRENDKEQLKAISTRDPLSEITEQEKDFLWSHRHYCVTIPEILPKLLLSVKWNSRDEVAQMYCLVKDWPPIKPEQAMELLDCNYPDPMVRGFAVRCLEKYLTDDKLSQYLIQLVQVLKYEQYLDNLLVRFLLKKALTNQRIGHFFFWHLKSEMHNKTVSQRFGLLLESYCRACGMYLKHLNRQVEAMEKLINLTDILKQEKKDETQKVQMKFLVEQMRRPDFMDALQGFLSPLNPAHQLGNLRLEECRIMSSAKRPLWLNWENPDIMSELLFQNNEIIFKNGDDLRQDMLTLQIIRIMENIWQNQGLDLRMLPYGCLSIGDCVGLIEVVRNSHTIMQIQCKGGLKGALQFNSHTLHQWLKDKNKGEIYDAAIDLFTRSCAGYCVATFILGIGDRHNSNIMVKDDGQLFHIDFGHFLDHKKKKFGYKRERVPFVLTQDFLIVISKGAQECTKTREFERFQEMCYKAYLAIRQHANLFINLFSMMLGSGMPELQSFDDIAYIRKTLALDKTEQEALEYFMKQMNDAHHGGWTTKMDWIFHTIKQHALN

Row | IC50 [1] [µM] | IC50 [2] [µM] | SMILES
1 | > 20 | > 20 | Cc1ccc(C(=O)O)cc1S(=O)(=O)N(C)N=Cc1cnn2ccc(C#N)cc12
2 |  | > 20 | Cc1ccc(F)cc1S(=O)(=O)N(C)N=Cc1cnn2ccc(C#N)cc12
3 | > 20 | > 20 | CC(=O)Nc1ccc(C)c(S(=O)(=O)N(C)N=Cc2cnn3ccc(C#N)cc23)c1
4 | 0.1 |  | CN(C)c1ccc([N+](=O)[O-])cc1S(=O)(=O)N(C)N=Cc1cnn2ccc(C#N)cc12
5 |  | > 20 | Cc1ccccc1S(=O)(=O)N(C)N=Cc1cnn2ccc(C#N)cc12
6 | > 20 | > 20 | Cc1ccc([N+](=O)[O-])cc1C(=O)N(C)N=Cc1cnn2ccc(C#N)cc12
7 | > 20 | > 20 | Cc1c([N+](=O)[O-])cccc1S(=O)(=O)N(C)N=Cc1cnn2ccc(C#N)cc12
8 | > 20 | > 20 | Cc1cc([N+](=O)[O-])ccc1S(=O)(=O)N(C)N=Cc1cnn2ccc(C#N)cc12
